Experimental data reported in ChEMBL document CHEMBL1145754, “Design and synthesis of statine-containing BACE inhibitors” (Bioorg Med Chem Lett, 2003).
Non-standard residues stand in square brackets, D forms with d. Residues, ends and D or L forms follow the SMILES beside them. *: point of attachment. Sta = CC(C)C[C@H](N)[C@@H](O)CC(=O)O; 3Amb = NCc1cccc(C(=O)O)c1; Nle = CCCC[C@H](N)C(=O)O; Nva = CCC[C@H](N)C(=O)O; X1 = O=C(C1CCCCO1)*

Biological target: Beta-secretase 1 (Homo sapiens, UniProt P56817)
Experiment: Inhibition of human beta-secretase

Beta-secretase 1, sequence (P56817 whole entry): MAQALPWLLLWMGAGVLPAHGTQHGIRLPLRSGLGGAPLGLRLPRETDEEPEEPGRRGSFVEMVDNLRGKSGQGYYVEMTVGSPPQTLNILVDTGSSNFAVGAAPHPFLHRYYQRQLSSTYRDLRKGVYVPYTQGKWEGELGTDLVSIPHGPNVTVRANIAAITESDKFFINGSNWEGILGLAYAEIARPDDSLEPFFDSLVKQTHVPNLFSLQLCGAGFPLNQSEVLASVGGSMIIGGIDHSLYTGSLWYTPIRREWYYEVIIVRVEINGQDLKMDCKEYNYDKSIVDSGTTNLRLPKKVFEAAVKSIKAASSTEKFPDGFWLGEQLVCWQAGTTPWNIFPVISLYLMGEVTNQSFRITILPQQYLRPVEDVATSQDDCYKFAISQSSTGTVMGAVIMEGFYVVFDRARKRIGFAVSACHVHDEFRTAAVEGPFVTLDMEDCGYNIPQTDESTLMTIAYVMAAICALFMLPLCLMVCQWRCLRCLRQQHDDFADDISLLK

IC50 [µM] | Structure (SMILES)
> 91 | CC(=O)N[C@@H](CC(C)C)C(=O)N[C@H](C)C(=O)N[C@@H](CC(C)C)[C@@H](O)CC(=O)N[C@H](C(=O)NCc1cccc(C(=O)O)c1)C(C)C
3.8 | CC(=O)N[C@H](C(=O)N[C@@H](C)C(=O)N[C@@H](CC(C)C)[C@@H](O)CC(=O)N[C@H](C(=O)NCc1cccc(C(=O)O)c1)C(C)C)C(C)C (Ac-VA[Sta]V[3Amb]-OH)
0.11 | CC(C)C[C@H](NC(=O)[C@H](C)NC(=O)[C@@H](NC(=O)[C@@H](N)CCC(=O)O)C(C)C)[C@@H](O)CC(=O)N[C@H](C(=O)N[C@@H](C)C(=O)N[C@@H](CCC(=O)O)C(=O)N[C@@H](Cc1ccccc1)C(=O)O)C(C)C (H-EVA[Sta]VAEF-OH)
0.22 | CC[C@H](C)[C@H](NC(=O)C[C@H](O)[C@H](CC(C)C)NC(=O)[C@H](CCSC)NC(=O)[C@@H](NC(=O)[C@@H](N)CCC(=O)O)C(C)C)C(=O)N[C@@H](C)C(=O)N[C@@H](CCC(=O)O)C(=O)N[C@@H](Cc1ccccc1)C(=O)O (H-EVM[Sta]IAEF-OH)
0.14 | CSCC[C@H](NC(=O)[C@@H](NC(=O)[C@@H](N)CCC(=O)O)C(C)C)C(=O)N[C@@H](CC(C)C)[C@@H](O)CC(=O)N[C@@H](CC(C)C)C(=O)N[C@@H](C)C(=O)N[C@@H](CCC(=O)O)C(=O)N[C@@H](Cc1ccccc1)C(=O)O (H-EVM[Sta]LAEF-OH)
0.058 | CSCC[C@H](NC(=O)[C@@H](NC(=O)[C@@H](N)CCC(=O)O)C(C)C)C(=O)N[C@@H](CC(C)C)[C@@H](O)CC(=O)N[C@H](C(=O)N[C@@H](C)C(=O)N[C@@H](CCC(=O)O)C(=O)N[C@@H](Cc1ccccc1)C(=O)O)C(C)C (H-EVM[Sta]VAEF-OH)
9.4 | CC(C)C[C@H](NC(=O)[C@H](CC(N)=O)NC(=O)[C@@H](NC(=O)[C@@H](N)CCC(=O)O)C(C)C)[C@@H](O)CC(=O)N[C@H](C(N)=O)C(C)C (H-EVN[Sta]V-NH2)
0.53 | CC(C)C[C@H](NC(=O)[C@H](CC(N)=O)NC(=O)[C@@H](NC(=O)[C@@H](N)CCC(=O)O)C(C)C)[C@@H](O)CC(=O)N[C@H](C(=O)N[C@@H](C)C(N)=O)C(C)C (H-EVN[Sta]VA-NH2)
0.11 | CC(C)C[C@H](NC(=O)[C@H](CC(N)=O)NC(=O)[C@@H](NC(=O)[C@@H](N)CCC(=O)O)C(C)C)[C@@H](O)CC(=O)N[C@H](C(=O)N[C@@H](C)C(=O)N[C@@H](CCC(=O)O)C(N)=O)C(C)C (H-EVN[Sta]VAE-NH2)
0.046 | CC(C)C[C@H](NC(=O)[C@H](CC(N)=O)NC(=O)[C@@H](NC(=O)[C@@H](N)CCC(=O)O)C(C)C)[C@@H](O)CC(=O)N[C@H](C(=O)N[C@@H](C)C(=O)N[C@@H](CCC(=O)O)C(=O)N[C@@H](Cc1ccccc1)C(=O)O)C(C)C (H-EVN[Sta]VAEF-OH)
> 91 | CC(C)C[C@H](NC(=O)[C@@H](N)CC(N)=O)[C@@H](O)CC(=O)N[C@H](C(=O)N[C@@H](C)C(=O)N[C@@H](CCC(=O)O)C(=O)N[C@@H](Cc1ccccc1)C(=O)O)C(C)C (H-N[Sta]VAEF-OH)
2 | CC(C)C[C@H](NC(=O)[C@H](CC(N)=O)NC(=O)[C@@H](N)C(C)C)[C@@H](O)CC(=O)N[C@H](C(=O)N[C@@H](C)C(=O)N[C@@H](CCC(=O)O)C(=O)N[C@@H](Cc1ccccc1)C(=O)O)C(C)C (H-VN[Sta]VAEF-OH)

Second part, the compound before the results:

Structure (SMILES) | IC50 [µM]
CC(=O)N[C@@H](CC(C)C)C(=O)N[C@@H](C)C(=O)N[C@@H](CC(C)C)[C@@H](O)CC(=O)N[C@H](C(=O)NCc1cccc(C(=O)O)c1)C(C)C | 0.52
CSCC[C@H](NC(=O)[C@H](CC(C)C)NC(C)=O)C(=O)N[C@@H](CC(C)C)[C@@H](O)CC(=O)N[C@H](C(=O)NCc1cccc(C(=O)O)c1)C(C)C | 0.89
CC[C@@H](C)[C@@H](NC(C)=O)C(=O)N[C@@H](C)C(=O)N[C@@H](CC(C)C)[C@@H](O)CC(=O)N[C@H](C(=O)NCc1cccc(C(=O)O)c1)C(C)C | > 91
CC[C@H](C)[C@H](NC(C)=O)C(=O)N[C@@H](C)C(=O)N[C@@H](CC(C)C)[C@@H](O)CC(=O)N[C@H](C(=O)NCc1cccc(C(=O)O)c1)C(C)C | 0.25
CSCC[C@@H](NC(=O)[C@H](CC(C)C)NC(C)=O)C(=O)N[C@@H](CC(C)C)[C@@H](O)CC(=O)N[C@H](C(=O)NCc1cccc(C(=O)O)c1)C(C)C | > 91
CSCC[C@H](NC(=O)[C@H](CC(C)C)NC(C)=O)C(=O)N[C@@H](CC(C)C)[C@@H](O)CC(=O)N[C@@H](C(=O)NCc1cccc(C(=O)O)c1)C(C)C | > 91
CC[C@H](C)[C@H](NC(C)=O)C(=O)N[C@@H](C)C(=O)N[C@@H](CC(C)C)[C@@H](O)CC(=O)N[C@@H](Cc1ccccc1)C(=O)NCc1cccc(C(=O)O)c1 (Ac-IA[Sta]F[3Amb]-OH) | 0.25
CC[C@H](C)[C@H](NC(C)=O)C(=O)N[C@@H](C)C(=O)N[C@@H](CC(C)C)[C@@H](O)CC(=O)N[C@@H](CC(C)C)C(=O)NCc1cccc(C(=O)O)c1 (Ac-IA[Sta]L[3Amb]-OH) | 0.26
CC[C@H](C)[C@H](NC(C)=O)C(=O)N[C@@H](C)C(=O)N[C@@H](CC(C)C)[C@@H](O)CC(=O)N[C@@H](Cc1ccc(O)cc1)C(=O)NCc1cccc(C(=O)O)c1 (Ac-IA[Sta]Y[3Amb]-OH) | 0.11
CCCC[C@H](NC(=O)C[C@H](O)[C@H](CC(C)C)NC(=O)[C@H](C)NC(=O)[C@@H](NC(C)=O)[C@@H](C)CC)C(=O)NCc1cccc(C(=O)O)c1 (Ac-IA[Sta][Nle][3Amb]-OH) | 0.18
CC[C@H](C)[C@H](NC(C)=O)C(=O)N[C@@H](CCSC)C(=O)N[C@@H](CC(C)C)[C@@H](O)CC(=O)N[C@@H](Cc1ccccc1)C(=O)NCc1cccc(C(=O)O)c1 (Ac-IM[Sta]F[3Amb]-OH) | 0.14
CC[C@H](C)[C@H](NC(C)=O)C(=O)N[C@@H](CCSC)C(=O)N[C@@H](CC(C)C)[C@@H](O)CC(=O)N[C@@H](Cc1ccc(O)cc1)C(=O)NCc1cccc(C(=O)O)c1 (Ac-IM[Sta]Y[3Amb]-OH) | 0.091
CCCC[C@H](NC(=O)C[C@H](O)[C@H](CC(C)C)NC(=O)[C@H](CCSC)NC(=O)[C@@H](NC(C)=O)[C@@H](C)CC)C(=O)NCc1cccc(C(=O)O)c1 (Ac-IM[Sta][Nle][3Amb]-OH) | 0.086
CCC[C@H](NC(=O)C[C@H](O)[C@H](CC(C)C)NC(=O)[C@H](CCSC)NC(=O)[C@@H](NC(C)=O)[C@@H](C)CC)C(=O)NCc1cccc(C(=O)O)c1 (Ac-IM[Sta][Nva][3Amb]-OH) | 0.13
CCCC[C@H](NC(C)=O)C(=O)N[C@@H](C)C(=O)N[C@@H](CC(C)C)[C@@H](O)CC(=O)N[C@H](C(=O)NCc1cccc(C(=O)O)c1)C(C)C (Ac-[Nle]A[Sta]V[3Amb]-OH) | 1.4
CCC[C@H](NC(C)=O)C(=O)N[C@@H](C)C(=O)N[C@@H](CC(C)C)[C@@H](O)CC(=O)N[C@H](C(=O)NCc1cccc(C(=O)O)c1)C(C)C (Ac-[Nva]A[Sta]V[3Amb]-OH) | 0.83
CC(C)C[C@H](NC(=O)[C@H](CC(N)=O)NC(=O)[C@@H](NC(=O)[C@@H](N)CCC(=O)O)C(C)C)[C@@H](O)CC(N)=O (H-EVN[Sta]-NH2) | > 91
CC[C@H](C)[C@H](NC(=O)C1CCCCO1)C(=O)N[C@@H](C)C(=O)N[C@@H](CC(C)C)[C@@H](O)CC(=O)N[C@H](C(=O)NCc1cccc(C(=O)O)c1)C(C)C (stereo not given in full) (X1-IA[Sta]V[3Amb]-OH) | 0.069
